Holding throughout (type): cell-based
For data set [1], the system named is Human Intestinal Normal Cells (Cell Systems IE Cells). The experiment in a line: Cytotoxicity assay for human intestinal normal cells, trypan blue. As to conditions: 3 days. On the procedure: (§1) Each human normal cells are preliminarily seeded in 35 mm petri dishes containing Dulbecco's modified Eagle medium (DMEM) containing 20% of fetal bovine serum (FBS) in a concentration of 1×10^5/ml. The resulting cells are incubated at 36° C. for 1 day under 5% CO2, and cells are confirmed to be stuck at the bottom of the petri dishes. A racemate, α-isomer and β-isomer are each dissolved in DMSO to give solutions in concentrations of 0.5 mM, 0.05 mM, 0.005 mM and 0.0005 mM, 2 μL each of which are added to each cells. The resulting cells are incubated at 36° C. for 3 days, and viable cells are counted by using 0.25% trypan blue and viabilities are calculated. A commercially-available anticancer agent mitomycin is also examined as a control in the test against human skin normal cells, and the results are also shown in TABLE 6.

In another data set the test system is PC-3 cells. The experiment in a line: Antitumor activity against PC-3 cells (2), viable cell count. The following applies: Homo sapiens. On the procedure: (§2) PC-3 cells (manufactured by Department of Laboratory Products of Dainippon Pharm. Co. Ltd.) are preliminarily seeded in 35 mm petri dishes containing Dulbecco's modified Eagle medium (DMEM) containing 20% of fetal bovine serum (FBS) in a concentration of 1×10^5/ml. The resulting cells are incubated at 36° C. for 1 day under 5% CO2, and cells are confirmed to be stuck at the bottom of the petri dishes. The resulting PC-3 cells are divided into […], to the first group of which is added (±)-2-(1-hydroxyethyl)-5-hydroxynaphtho[2,3-b]furan-4,9-dione (racemate) in concentrations of 0.5 mM, 0.05 mM and 0.005 mM, and to the second group of which is added adriamycin (Wakenyaku Co. Ltd.) as a control in concentrations of 0.5 mM, 0.05 mM and 0.005 mM. These groups are incubated at 36° C. for 3 days, and viable cells are counted and viability is calculated.
(§3) PC-3 cells obtained in a similar manner in the above (1) are divided into three groups, to the first group of which is added (±)-2-(1-hydroxyethyl)-5-hydroxynaphtho[2,3-b]furan-4,9-dione (racemate) in concentrations of 0.5 mM, 0.05 mM, 0.005 mM and 0.0005 mM, to the second group of which is added an unnatural type 2-(1-hydroxyethyl)-5-hydroxynaphtho[2,3-b]furan-4,9-dione (α-isomer) in concentrations of 0.5 mM, 0.05 mM, 0.005 mM and 0.0005 mM, to the third group of which is added a natural type 2-(1-hydroxyethyl)-5-hydroxynaphtho[2,3-b]furan-4,9-dione (β-isomer) in concentrations of 0.5 mM, 0.05 mM, 0.005 mM and 0.0005 mM, and to the fourth group of which is added mitomycin as a control in concentrations of 0.5 mM, 0.05 mM, 0.005 mM and 0.0005 mM. These groups are incubated at 36° C. for 3 days, and viable cells are counted and viability is calculated.

Data set [2] deals with Human Lung Normal Cells (MRC-5). The experiment in a line: Cytotoxicity assay for human lung normal cells, trypan blue. As to conditions: 3 days. On the procedure:
as §1

Data set [3] has as its system PC-3 cells (Prostate cancer cells). Put plainly: Antitumor activity against PC-3 cells (1), viable cell count. The following applies: Homo sapiens, PC-3, 72 h. How it is done: as §2
The test system of data set [4] is Human Hepatic Normal Cells (Cell Systems Hc Cells). The experiment in a line: Cytotoxicity assay for human hepatic normal cells, trypan blue. The following applies: 3 days. On the procedure:
as §1

The test system of data set [5] is A-549 cells (Lung cancer cells). The experiment in a line: Antitumor activity against A-549 cells, viable cell count. The following applies: Homo sapiens, A549, 72 h. How it is done:
as §3
Antitumor activity is examined on A-549 cells in a similar manner as in the above (2).

Data set [6] deals with MCF-7 cells (Breast cancer cells). Put plainly: Antitumor activity against MCF-7 cells, viable cell count. As to conditions: Homo sapiens, MCF7, 72 h. On the procedure:
as §3
Antitumor activity is examined on MCF-7 cells in a similar manner as in the above (2).

The test system of data set [7] is Human Skin Normal Cells (Cell System Fb cells). Put plainly: Cytotoxicity assay for human skin normal cells, trypan blue. As to conditions: for Viability %: human skin normal cells, 3 days. On the procedure: as §1

The results in this text go back to US7910752B2, “Anticancer compound, intermediate therefor, and processes for producing these” (Taheebo Japan Co., Ltd., priority 2005, dated 2011).

Where two headings read alike, the source gives them in different places.

Regarding `CC(O)c1cc2c(o1)C(=O)c1cccc(O)c1C2=O` (racemic) [Racemate, (±)-2-(1-hydroxyethyl)-5-hydroxynaphtho[2,3-b]furan-4,9-dione], the Viability % was found to be 100% in data set [1] (0.0005 mM); 80% in data set [1] (0.005 mM); 60% in data set [1] (0.05 mM); 40% in data set [1] (0.5 mM); 100% in data set [2] (0.0005 mM); 80% in data set [2] (0.005 mM). For the same compound, the Viability % worked out at 60% in data set [2] (0.05 mM); 30% in data set [2] (0.5 mM); 100% in data set [4] (0.0005 mM); 80% in data set [4] (0.005 mM); 60% in data set [4] (0.05 mM); 30% in data set [4] (0.5 mM). For the same compound, the Viability % in data set [7] (0.0005 mM) is reported as 100%; in data set [7] (0.005 mM), 80%; in data set [7] (0.05 mM), 50%; in data set [7] (0.5 mM), 20%. Moreover, the viability (usually the share of living cells, or the viability signal relative to a control) at 0.5 µM stood at 50% with PC-3 cells (PC-3, 72 h); 70% in data set [5]; 90% in data set [6]. Also, the viability at 5 µM in the data set on PC-3 cells (PC-3, 72 h) was 30%; in data set [3], 50%; in data set [5], 50%; in data set [6], 50%. In addition, the viability at 50 µM was 0% with PC-3 cells (PC-3, 72 h); 0% in data set [3]; 10% in data set [5]; 20% in data set [6]. The viability at 500 µM in the data set with PC-3 cells (PC-3, 72 h) came out at 0%; in data set [3], 0%; in data set [5], 0%; in data set [6], 0%.
`CC(O)c1cc2c(o1)C(=O)c1cccc(O)c1C2=O` (single isomer, unassigned; isomer 2) [α-Isomer, 2-(1-hydroxyethyl)-5-hydroxynaphtho[2,3-b]furan-4,9-dione]: the Viability % in data set [1] (0.0005 mM) stood at 100%; in data set [1] (0.005 mM), 80%; in data set [1] (0.05 mM), 60%; in data set [1] (0.5 mM), 40%; in data set [2] (0.0005 mM) it was 100%; in data set [2] (0.005 mM) it was 80%. The Viability % in data set [2] (0.05 mM) worked out at 50%; in data set [2] (0.5 mM), 30%; in data set [4] (0.0005 mM) it was 100%; in data set [4] (0.005 mM), 70%; in data set [4] (0.05 mM), 40%; in data set [4] (0.5 mM) it was 20%. Also, the Viability % in data set [7] (0.0005 mM) is 100%; in data set [7] (0.005 mM), 70%; in data set [7] (0.05 mM), 40%; in data set [7] (0.5 mM), 30%. For the same compound, the viability at 0.5 µM in the data set on PC-3 cells (PC-3, 72 h) stood at 60%; in data set [5], 70%; in data set [6] it was 90%. Besides, the viability at 5 µM in the data set with PC-3 cells (PC-3, 72 h) came out at 30%; in data set [5], 40%; in data set [6], 60%. Also, the viability at 50 µM in the data set on PC-3 cells (PC-3, 72 h) was found to be 0%; in data set [5], 10%; in data set [6] it was 30%. The viability at 500 µM is 0% with PC-3 cells (PC-3, 72 h); 0% in data set [5]; 0% in data set [6].
For the compound `CC(O)c1cc2c(o1)C(=O)c1cccc(O)c1C2=O` (single isomer, unassigned; isomer 2) [β-Isomer, 2-(1-hydroxyethyl)-5-hydroxynaphtho[2,3-b]furan-4,9-dione], the Viability % in data set [1] (0.0005 mM) turned out to be 100%; in data set [1] (0.005 mM), 70%; in data set [1] (0.05 mM) it was 50%; in data set [1] (0.5 mM), 30%; in data set [2] (0.0005 mM), 100%; in data set [2] (0.005 mM), 70%. In addition, the Viability % in data set [2] (0.05 mM) was found to be 40%; in data set [2] (0.5 mM), 20%; in data set [4] (0.0005 mM), 100%; in data set [4] (0.005 mM) it was 50%; in data set [4] (0.05 mM) it was 20%; in data set [4] (0.5 mM) it was 10%. The Viability % in data set [7] (0.0005 mM) is 100%; in data set [7] (0.005 mM) it was 50%; in data set [7] (0.05 mM), 20%; in data set [7] (0.5 mM), 10%. In addition, the viability at 0.5 µM with PC-3 cells (PC-3, 72 h) was found to be 40%; in data set [5], 60%; in data set [6] it was 70%. The viability at 5 µM was 10% in the data set with PC-3 cells (PC-3, 72 h); 30% in data set [5]; 50% in data set [6]. Also, the viability at 50 µM in the data set on PC-3 cells (PC-3, 72 h) amounted to 0%; in data set [5], 10%; in data set [6], 20%. The viability at 500 µM with PC-3 cells (PC-3, 72 h) worked out at 0%; in data set [5] it was 0%; in data set [6], 0%.
On to `COc1cccc2c1C(=O)c1c(O)c3c(c(O)c1C2=O)C[C@@](O)(C(=O)CO)C[C@@H]3O[C@H]1C[C@H](N)[C@H](O)[C@H](C)O1` [Adriamycin, adriamycin, reference compound], for which, in data set [3], the viability at 5 µM was determined as 42%, the viability at 50 µM stood at 0% and the viability at 500 µM was 0%.
Turning to `CO[C@@]12[C@H](COC(N)=O)C3=C(C(=O)C(C)=C(N)C3=O)N1C[C@@H]1N[C@@H]12` [Mitomycin, mitomycin, reference compound], the viability at 0.5 µM with PC-3 cells (72 h, PC-3 cells, 0.0005 mM, 3 days, read-out: Viability %) turned out to be 40%; in data set [5] (A-549 cells, 0.0005 mM, 3 days, read-out: Viability %), 50%; in data set [6] (MCF-7 cells, 0.0005 mM, 3 days, read-out: Viability %), 60%. Further, the viability at 5 µM in the data set with PC-3 cells (72 h, PC-3 cells, 0.005 mM, 3 days, read-out: Viability %) came out at 10%; in data set [5] (A-549 cells, 0.005 mM, 3 days, read-out: Viability %), 10%; in data set [6] (MCF-7 cells, 0.005 mM, 3 days, read-out: Viability %) it was 30%. Besides, the viability at 50 µM with PC-3 cells (72 h, PC-3 cells, 0.05 mM, 3 days, read-out: Viability %) amounted to 0%; in data set [5] (A-549 cells, 0.05 mM, 3 days, read-out: Viability %), 0%; in data set [6] (MCF-7 cells, 0.05 mM, 3 days, read-out: Viability %) it was 10%. Moreover, the viability at 500 µM came to 0% in the data set with PC-3 cells (72 h, PC-3 cells, 0.5 mM, 3 days, read-out: Viability %); 0% in data set [5] (A-549 cells, 0.5 mM, 3 days, read-out: Viability %); 0% in data set [6] (MCF-7 cells, 0.5 mM, 3 days, read-out: Viability %). Also, the Viability % in data set [7] (0.0005 mM) is given as 60%; in data set [7] (0.005 mM) it was 30%; in data set [7] (0.05 mM) it was 0%; in data set [7] (0.5 mM) it was 0%. In addition, the “toxicity to normal cells” value in data set [7] (summary in words of TABLE 6) was “very strong toxicity”.
